Several values for one entry are separate records, joined by “and”; a condition that tells them apart may be missing. Equal values may be shown once. Read-outs that look alike come from different tables or passages of the source.
How the values were obtained:
HIV capsid = conditions: ref Link et al, Nature, 2020;[16]; cited from earlier work
CA mutant M66I = conditions: ref Link et al, Nature, 2020;[16]; cited from earlier work
[1] = ref Link et al, Nature, 2020;[16]; cited from earlier work
[2] = ref Link et al, Nature, 2020;[16], cited from earlier work
CA mutant L56I = conditions: ref Link et al, Nature, 2020;[16]; cited from earlier work
[3] = in vivo, sc; cited from earlier work
SHIV-SF162P3 = test: microbe, parasite or virus in culture; format: cell-based, SHIV (in rhesus macaque, Macaca mulatta, PBMCs)
Description: Freshly isolated PBMCs from three male rhesus macaque (M. mulatta) donors of Indian origin (HumanCells Biosciences) were cultured in RPMI-1640 cell culture medium (Life Technologies) supplemented with 10% heat-inactivated FBS (Hyclone), 2 mM glutamine and 100 U ml^−1 penicillin plus 100 μg ml^−1 streptomycin (complete RPMI). Before their use in the antiviral assays, rhesus PBMCs from three independent donors were pooled and activated at a density of 3 × 10^6 cells per ml for 72 h at 37 °C by the addition of 1 μg ml^–1 phytohemagglutinin (PHA, Sigma-Aldrich) and 50 U ml^−1 recombinant human interleukin-2 (IL-2) (Roche Diagnostics).
PHA/IL-2-stimulated rhesus PBMCs were infected in bulk culture with SHIV-SF162P3 at a concentration of 130 pg of p27 equivalent per million PBMCs. The cells were maintained in suspension by gently rocking the cultures mixed with virus inoculum for 3 h at 37 °C. The cells were then pelleted by centrifugation at 500g for 5 min, washed twice with complete RPMI to remove any unadsorbed virus and seeded into 96-well plates at a cell density of 2 × 10^5 cells per well in 100 μl. […] The cultures were incubated in a 5% CO2 incubator at 37 °C for 7 days. Cell-free supernatants derived from the PBMC cultures were harvested 7 days after infection, the amount of SHIV present was quantified using an SIV p27 antigen-capture ELISA assay (5436, Advanced Bioscience Laboratories) performed according to the manufacturer’s protocol, and the data were acquired using SoftMax Pro 6.3.1 software (Molecular Devices).

[4] = target: CA precursor (Gag polyprotein); conditions: ref Link et al, Nature, 2020;[16]; read-out: Binding Affinity (KD), CA precursor (Gag polyprotein); cited from earlier work
HIV-1 = conditions: cited from earlier work; for average LEN plasma concentration as multiple of human paEC95: 9 days after dose administration
CA pentamer = conditions: ref Link et al, Nature, 2020;[16]; read-out: Binding Affinity (KD), CA pentamer; cited from earlier work
CA monomer = conditions: ref Link et al, Nature, 2020;[16]; read-out: Binding Affinity (KD), CA monomer; cited from earlier work
CA hexamer = conditions: ref Link et al, Nature, 2020;[16]; read-out: Binding Affinity (KD), CA hexamer; cited from earlier work
HIV-1 isolates = conditions: ref Link et al, Nature, 2020;[16]; read-out: EC50, human PBMCs, HIV-1 isolates; cited from earlier work
[5] = ref Link et al, Nature, 2020;[16]; cited from earlier work; remark: listed apart in the source
CA mutant N74D = conditions: ref Link et al, Nature, 2020;[16]; cited from earlier work
[6] = single experiments n1–n7, SIV p27 ELISA day 7, read-out: SHIV162P3-rhPBMC-EC50, individual experiments

For `CC(C)(C#Cc1ccc(-c2ccc(Cl)c3c(NS(C)(=O)=O)nn(CC(F)(F)F)c23)c([C@H](Cc2cc(F)cc(F)c2)NC(=O)Cn2nc(C(F)(F)F)c3c2C(F)(F)[C@@H]2C[C@H]32)n1)S(C)(=O)=O` [LEN, Lenacapavir, reference compound], the “Inhibits nuclear import (early-stage)” value (HIV capsid) is given as “Yes”, the “Inhibits proper capsid assembly (late-stage)” value (HIV capsid) is given as “Yes” and the “Inhibits virus production (late-stage)” value (HIV capsid) is given as “Yes”. For the same compound, the “In vitro fold-resistance (CA mutant/wild-type), M66I” value (CA mutant M66I) was >3,200, the “T1/2, human cryopreserved hepatocytes” value [1] was 202 h and the “Kinetic solubility at pH 2.0” value ([2]; pH 2.0) was <1, <1 μM. For the same compound, the “Kinetic solubility at pH 7.4” value ([2]; pH 7.4) was <1, <1 μM, the “In vitro fold-resistance (CA mutant/wild-type), L56I” value (CA mutant L56I) was 239 and the “duration of mean exposure of more than six times human paEC95” value [3] was “at least 6 months”. The EC50 (SHIV-SF162P3; Simian immunodeficiency virus, PBMC, in Macaca mulatta, 168 h, read-out: EC50, rhesus PBMCs, SHIV-SF162P3, mean of 7 assays, SIV p27 ELISA day 7 post-infection) was 0.39 nM, the EC50 (SHIV-SF162P3; read-out: SHIV162P3-rhPBMC-EC50, individual experiments, single experiments n1–n7, SIV p27 ELISA day 7) was 0.37 nM and 0.26 nM and 0.49 nM and 0.27 nM and 0.69 nM and 0.43 nM and the EC50 (SHIV-SF162P3; [6]) was 0.23 nM. For the same compound, the Kd [4] was 1.1 nM, the “average LEN plasma concentration as multiple of human paEC95” value (HIV-1; 20 mg dose) was 0.7 times the human paEC95 and the “average LEN plasma concentration as multiple of human paEC95” value (HIV-1; 50 mg dose) was 1.1 times the human paEC95. For the same compound, the “participants with capsid mutation Q67H detected” value (HIV-1; long-acting LEN monotherapy, phase 1b) was 2 of 29, the “maximum decline in HIV-1 RNA” value (HIV-1; long-acting formulation, after 9 days of monotherapy) was 2.3 log10 and the Kd (CA pentamer) was 0.22 nM. For the same compound, the Kd (CA monomer) was 2.5 nM, the Kd (CA hexamer) was 0.24 nM and the EC50 (HIV-1 isolates) was 0.05 nM. For the same compound, the “Predicted Hepatic Clearance, rate, primary human hepatocytes” value [5] was 0.17 mL/min/kg and the “In vitro fold-resistance (CA mutant/wild-type), N74D” value (CA mutant N74D) was 22.

In the case of `O=C(NCc1c(F)cc(F)cc1F)c1cn2c(c(O)c1=O)C(=O)N1[C@H]3CC[C@H](C3)O[C@@H]1C2` [BIC, reference compound], the EC50 (SHIV-SF162P3; mean of 7 assays, SIV p27 ELISA day 7 post-infection, read-out: EC50, rhesus PBMCs, SHIV-SF162P3) is reported as 1.34 nM and the EC50 (SHIV-SF162P3; [6]) is reported as 0.78 nM and 0.9 nM and 1.77 nM and 1.85 nM and 0.55 nM and 1.25 nM and 2.26 nM.
